Source: patent US5719154A, “Oxazolidinone antibacterial agents having a six-membrane heteroaromatic ring” (priority 1996, dated 1998)

Legend:
S. aureus UC ® No. 9213 = assay: Murine Assay, in vivo antimicrobial activity (ED50 from mortality ratios) against S. aureus UC No. 9213; set-up: species or system Staphylococcus aureus (infected female mice); settings: oral or subcutaneous, survival six days; for ED50: Staphylococcus aureus, UC9213, 144 h, female mice infected intraperitoneally with S. aureus UC No. 9213, drug one hour and five hours after infection, probit analysis
Protocol: Antimicrobial activity is tested in vivo using the Murine Assay procedure. Groups of female mice (six mice weighing 18-20 grams each) are injected intraperiteneally with bacteria which are thawed just prior to use and suspended in brain heart infusion with 4% brewers yeast (Staphylococcus aureus) or brain heart infusion (Streptecoccus species). Antibiotic treatment at six dose levels per drug is administered one hour and five hours after infection by either oral intubation or subcutaneous routes. Survival is observed daily for six days. ED50 values based on mortality ratios are calculated using probit analysis. The subject compounds are compared against drug U-100592 as controls. […] The detailed information with respect to the structure and in vivo efficacy evaluations of U-100592 is summarized in Upjohn Oxazolidinone Antibacterial Agents, Posters Presented at the 35th Interscience Conference on Antimicrobial Agents and Chemotherapy, San Francisco, 17-20 September 1995.

[1] = tested on: bacteria (Staphylococcus aureus or Streptecoccus species); settings: extensively evaluated in this animal model versus vancomycin; cited from earlier work

| Structure (SMILES) | ED50 (S. aureus UC ® No. 9213) [mg/kg] | potency versus vancomycin [1] | U-100592 ED50 (S. aureus UC ® No. 9213; comparator control for the Example of the same line, female mice, S. aureus UC No. 9213, 8640 min) [mg/kg] |
| --- | --- | --- | --- |
| CC(=O)NC[C@H]1CN(c2ccc(N3CCN(c4ccncn4)CC3)c(F)c2)C(=O)O1 [Example 2] | 4.4 |  |  |
| CC(=O)NC[C@H]1CN(c2ccc(N3CCN(c4cccnn4)CC3)c(F)c2)C(=O)O1 [Example 3] | 8.8 |  |  |
| CC(=O)NC[C@H]1CN(c2ccc(N3CCN(C(=O)CO)CC3)c(F)c2)C(=O)O1 [Example U-100592, reference compound] |  | equipotent to vancomycin | 8.7 |
| CC(=O)NC[C@H]1CN(c2ccc(N3CCN(c4ncccn4)CC3)c(F)c2)C(=O)O1 [Example 1] | 6.2 |  |  |
| CC(=O)NC[C@H]1CN(c2ccc(N3CCN(c4ccc(C)nn4)CC3)c(F)c2)C(=O)O1 [Example 4] | 6.3 |  |  |
